# Source: patent US12661335B2, “Halogenated xanthene-containing topical anti-gram-positive bacterial ophthalmic composition and method” (Provectus Pharmatech, Inc., priority 2021, dated 2026)
# System: M. smegmatis 607 ™ (RB mutant)
# Format: cell-based, Mycobacterium smegmatis
row,Compound,susceptibility of the RB-resistant strain to TB drugs
1,"NC[C@H]1O[C@@H](O[C@H]([C@H]2O[C@@H](n3ccc(=O)[nH]c3=O)[C@H](O)[C@@H]2O)[C@H](NCCCC(=O)NCc2ccc(N3CCC(Oc4ccc(OC(F)(F)F)cc4)CC3)cc2)C(N)=O)[C@H](O)[C@@H]1O [APPB, aminouridyl phenoxypiperidinylbenzyl butanamide]",susceptible
2,NCC[C@H](O)C(=O)N[C@@H]1C[C@H](N)[C@@H](O[C@H]2O[C@H](CN)[C@@H](O)[C@H](O)[C@H]2O)[C@H](O)[C@H]1O[C@H]1O[C@H](CO)[C@@H](O)[C@H](N)[C@H]1O [Amikacin],susceptible
3,"CCc1cc(C(N)=S)ccn1 [Ethionamide (ETH), Ethionamide]",susceptible
4,"NNC(=O)c1ccncc1 [Isoniazid (INH), Isoniazid]",cross-resistance
5,Capreomycin,susceptible
